From publication PMC3723878 (PLoS ONE, 2013)
Residue numbers refer to the chain shown, from its start.

Columns and labels:
Experiment in all cases: Saturation binding of ^125I-HEAT
[1] = molecular target: T1, human α1A-AR F288A variant (Homo sapiens, UniProt P35348, F288A)
T1 construct: expressed in transfected cells; host or cells: COS-7 (transient, calcium phosphate), membranes
T1 sequence (P35348 1-466 F288A): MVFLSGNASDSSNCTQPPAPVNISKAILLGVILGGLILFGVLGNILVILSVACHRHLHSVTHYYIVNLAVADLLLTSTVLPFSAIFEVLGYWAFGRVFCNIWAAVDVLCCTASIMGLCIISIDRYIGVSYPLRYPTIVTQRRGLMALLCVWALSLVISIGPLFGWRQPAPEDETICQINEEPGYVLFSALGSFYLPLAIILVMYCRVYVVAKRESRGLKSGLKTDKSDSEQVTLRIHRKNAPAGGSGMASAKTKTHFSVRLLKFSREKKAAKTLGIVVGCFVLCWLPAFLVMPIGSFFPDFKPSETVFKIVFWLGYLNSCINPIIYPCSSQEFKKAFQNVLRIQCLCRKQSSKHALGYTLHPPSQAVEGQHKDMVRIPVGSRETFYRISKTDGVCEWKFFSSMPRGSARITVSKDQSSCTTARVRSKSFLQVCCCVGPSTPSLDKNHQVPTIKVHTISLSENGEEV

[2] = molecular target: T2, human α1A-AR F187A variant (Homo sapiens, UniProt P35348, F187A)
T2 construct: expressed in transfected cells; host or cells: COS-7, transient (calcium phosphate)
T2 sequence (P35348 1-466 F187A): T1 sequence (P35348 1-466 F288A) with F187A, A288F

[3] = molecular target: T3, human α1A-AR F86A variant (Homo sapiens, UniProt P35348, F86A); conditions: F86A (2.64), n = 3–6
T3 construct: expressed in transfected cells; host or cells: COS-7, transient (calcium phosphate)
T3 sequence (P35348 1-466 F86A): T1 sequence (P35348 1-466 F288A) with F86A, A288F

O=C1c2ccccc2CCC1CNCCc1ccc(O)c([125I])c1 (centres unmarked) [125I-HEAT]
^125I-HEAT Ratio (loss of affinity relative to WT) ([1]; F288A): 1.3
^125I-HEAT pKd ([1]; F288A (6.51), saturation binding, n = 3–6): 9.92±0.12
^125I-HEAT Ratio (loss of affinity relative to WT) ([2]; F187A): 0.22 ^*
^125I-HEAT pKd ([2]; F187A (5.41), saturation binding, n = 3–6): 10.70±0.01
^125I-HEAT pKd [3]: 8.68±0.09
